The values that follow come from ChEMBL document CHEMBL1152780, “Kinase domain mutations in cancer: implications for small molecule drug design strategies” (J Med Chem, 2009).

Experiment [1] can be described thus: Cytotoxicity against mouse BA/F3 cells expressing EGFR L858R mutant. In kind it is functional, cell-based. To be noted: BaF3.
Experiment [2] can be described thus: Cytotoxicity against mouse BA/F3 cells expressing EGFR L858R/T790M mutant. In kind it is functional, cell-based. To be noted: BaF3.

Molecules are shown by their SMILES.

For the molecule `C#Cc1cccc(Nc2ncnc3cc(OCCOC)c(OCCOC)cc23)c1` [ERLOTINIB], the IC50 in experiment [1] turned out to be 12.5 nM.
Consider `CCOc1cc2ncc(C#N)c(Nc3ccc(OCc4ccccn4)c(Cl)c3)c2cc1NC(=O)/C=C/CN(C)C` [NERATINIB], for which the IC50 in experiment [1] turned out to be 3.5 nM; in experiment [2] it was 180 nM.
